Reference: the supplement of paper PMC10307832

Key:
Assay in all cases: relative viability (nuclei count vs DMSO), 5 days (fraction); higher = more cells survive
Vemurafenib + Pictilisib = compound: CCCS(=O)(=O)Nc1ccc(F)c(C(=O)c2c[nH]c3ncc(-c4ccc(Cl)cc4)cc23)c1F [Vemurafenib] + CS(=O)(=O)N1CCN(Cc2cc3nc(-c4cccc5[nH]ncc45)nc(N4CCOCC4)c3s2)CC1 [Pictilisib] (partner 1 µM)
Method in brief: (§1)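 For relative viability, nuclei counts in treated wells were divided by those in vehicle wells. Lung cancer cell lines had been pin-tool dosed in 1536-well plates the day after seeding and cultured for 5 days, then fixed and stained in one step (final 0.05% Triton X-100, 1% formaldehyde, 1 ug/ml Hoechst) and imaged at 4×. Doses were one drug alone or a fixed anchor-drug dose plus five library-drug doses (not always all listed) in √10 steps, and values are duplicate-plate medians.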

Vemurafenib + Pemetrexed = compound: CCCS(=O)(=O)Nc1ccc(F)c(C(=O)c2c[nH]c3ncc(-c4ccc(Cl)cc4)cc23)c1F [Vemurafenib] + Nc1nc2[nH]cc(CCc3ccc(C(=O)N[C@@H](CCC(=O)O)C(=O)O)cc3)c2c(=O)[nH]1 [Pemetrexed] (partner 0.2 µM)
Method in brief: as §1

OSI-027 + Luminespib = compound: COc1cccc2cc(-c3nc([C@H]4CC[C@H](C(=O)O)CC4)n4ncnc(N)c34)[nH]c12 [OSI-027] + CCNC(=O)c1noc(-c2cc(C(C)C)c(O)cc2O)c1-c1ccc(CN2CCOCC2)cc1 [Luminespib] (partner 0.01 µM)
Method in brief: as §1

Alpelisib + Foretinib = compound: Cc1nc(NC(=O)N2CCC[C@H]2C(N)=O)sc1-c1ccnc(C(C)(C)C(F)(F)F)c1 [Alpelisib] + COc1cc2c(Oc3ccc(NC(=O)C4(C(=O)Nc5ccc(F)cc5)CC4)cc3F)ccnc2cc1OCCCN1CCOCC1 [Foretinib] (partner 0.25 µM)
Method in brief: as §1

Cell Line | relative viability (Vemurafenib + Pictilisib; first compound 0.03162 µM) | relative viability (Vemurafenib + Pictilisib; first compound 0.3162 µM) | relative viability (Vemurafenib + Pictilisib; first compound 1 µM) | relative viability (Vemurafenib + Pemetrexed; first compound 0.03162 µM) | relative viability (Vemurafenib + Pemetrexed; first compound 0.3162 µM) | relative viability (Vemurafenib + Pemetrexed; first compound 1 µM) | relative viability (OSI-027 + Luminespib; first compound 0.01 µM) | relative viability (OSI-027 + Luminespib; first compound 0.03162 µM) | relative viability (OSI-027 + Luminespib; first compound 0.1 µM) | relative viability (OSI-027 + Luminespib; first compound 0.3162 µM) | relative viability (OSI-027 + Luminespib; first compound 1 µM) | relative viability (Alpelisib + Foretinib; first compound 0.04 µM) | relative viability (Alpelisib + Foretinib; first compound 0.1265 µM) | relative viability (Alpelisib + Foretinib; first compound 0.4 µM) | relative viability (Alpelisib + Foretinib; first compound 1.265 µM) | relative viability (Alpelisib + Foretinib; first compound 4 µM) | relative viability (Vemurafenib + Pictilisib; first compound 0.1 µM) | relative viability (Vemurafenib + Pemetrexed; first compound 0.1 µM)
H3255 | 0.474 | 0.48 | 0.452 | 0.551 | 0.515 | 0.566 | 0.74 | 0.871 | 0.775 | 0.817 | 0.459 | 0.973 | 0.753 | 0.96 | 0.695 | 0.562 |  | 
NCI-H650 | 0.818 | 0.534 | 0.771 | 0.909 | 0.551 | 0.702 | 0.757 | 0.731 | 0.749 | 0.648 | 0.381 | 1.03 | 0.988 | 1.01 | 0.839 | 0.822 | 0.834 | 0.913
NCI-H1563 | 0.666 | 0.584 | 0.647 | 0.708 | 0.681 | 0.65 | 0.479 | 0.479 | 0.455 | 0.517 | 0.481 | 0.861 | 0.95 | 0.909 | 0.713 | 0.748 | 0.621 | 0.627
NCI-H2170 | 0.305 | 0.254 | 0.293 | 0.272 | 0.265 | 0.289 | 0.844 | 0.639 | 0.565 | 0.544 | 0.176 | 0.978 | 0.914 | 1.12 | 0.922 | 0.622 | 0.157 | 
EKVX | 0.446 | 0.501 | 0.451 | 0.379 | 0.405 | 0.442 | 0.743 | 0.8 | 0.872 | 0.727 | 0.604 | 0.519 | 0.726 | 0.66 | 0.67 | 0.73 |  | 
NCI-H1734 | 0.452 | 0.432 | 0.367 | 0.396 | 0.385 | 0.399 | 0.174 | 0.179 | 0.203 | 0.166 | 0.178 | 0.749 |  | 0.786 | 0.486 | 0.356 | 0.545 | 0.382
CAL-12T | 0.407 |  | 0.406 | 1.16 | 1.52 | 1.17 | 0.342 | 0.533 | 0.589 | 0.0997 | 0.117 | 1.08 | 1.24 | 1.14 | 1.06 | 1.07 |  | 1.15
NCI-H2347 | 0.328 | 0.754 | 0.667 | 0.413 | 0.357 | 0.412 | 0.283 | 0.339 | 0.604 | 0.279 | 0.288 | 0.777 | 0.98 | 0.88 | 0.647 | 0.701 | 0.659 | 0.441
SK-MES-1 | 0.322 | 0.354 | 0.347 | 0.891 | 0.858 | 0.92 | 0.75 | 0.63 | 0.731 | 0.554 | 0.227 | 0.799 | 0.864 | 0.904 | 0.809 | 0.525 | 0.192 | 
NCI-H3122 | 0.596 | 0.798 | 0.69 | 0.206 | 0.214 | 0.203 | 0.0994 | 0.0843 | 0.054 | 0.0869 | 0.0772 | 1.02 | 0.884 | 0.987 | 0.867 | 0.821 | 0.596 | 0.188
NCI-H23 | 0.531 | 0.476 | 0.452 | 0.564 | 0.622 | 0.727 |  | 0.215 | 0.188 | 0.203 | 0.225 | 0.859 | 0.935 | 0.977 | 0.743 | 0.621 | 0.493 | 0.772
NCI-H2228 | 0.32 | 0.684 | 0.358 | 0.315 | 0.391 | 0.323 | 0.165 | 0.162 | 0.0954 | 0.122 | 0.111 | 0.82 | 0.927 | 0.701 | 0.613 | 0.404 | 0.362 | 0.321
HCC-15 | 0.653 | 0.727 | 0.578 | 0.227 | 0.209 | 0.222 | 0.347 | 0.501 | 0.397 | 0.264 | 0.339 | 0.982 | 1 | 0.961 | 0.792 | 0.735 | 0.773 | 0.226
NCI-H358 | 0.291 | 0.417 | 0.299 | 0.208 | 0.189 | 0.193 | 0.384 | 0.295 | 0.468 | 0.41 | 0.311 | 0.622 | 0.674 | 0.684 | 0.567 | 0.353 |  | 0.179
COR-L23 | 0.684 | 0.598 | 0.544 | 0.195 | 0.186 | 0.181 | 0.851 | 0.671 | 0.772 | 0.499 | 0.289 | 1.01 | 0.933 | 1.12 | 0.843 | 0.839 | 0.615 | 0.198
NCI-H2009 | 0.829 | 0.605 | 0.572 | 1.13 | 0.869 | 0.915 | 1.08 | 1.06 | 1.05 | 0.924 | 0.603 | 1.23 | 1.2 | 1.25 | 1.1 | 1.1 | 0.858 | 0.897
NCI-H1755 | 0.342 | 0.314 | 0.381 | 0.512 | 0.422 | 0.398 | 0.577 | 0.533 | 0.369 | 0.382 | 0.416 | 0.95 | 0.924 | 0.962 | 0.785 | 0.731 | 0.347 | 0.453
LCLC-97TM1 | 0.195 | 0.39 | 0.149 |  | 0.185 | 0.149 | 0.846 | 0.688 | 0.776 | 0.378 | 0.211 | 0.879 | 0.913 | 0.883 | 0.73 | 0.449 | 0.194 | 0.163
